“And” between values parts separate entries of the source, which are not always exact repeats. Equal entries are not always repeated.
Experiments:
[1] = Chronic reproduction toxicity test (OECD 211) with passive dosing; assay type: in vivo, Daphnia magna; settings: Daphnia magna, in vivo, other: waterborne exposure by passive dosing from PDMS disks, 21-day test, read-out: % offspring mortality of total offspring
Protocol: (§1) Chronic toxicity tests with D. magna were performed according to the OECD guideline 211^2 using the passive dosing method. Two days before the tests, the exposure solution was predosed by shaking 10 PDMS disks loaded with the test substance in 1 L of medium for 48 h. Each test vessel (250 mL) was first flushed with the dosed solution to equilibrate the vessel walls, then filled with 100 mL of test solution, one PDMS disk, and one juvenile D. magna (<24 h old). The tests were conducted in loosely closed bottles to allow for adequate gas exchange and limit evaporation. The exposure medium was changed three times per week, and the animals were fed D. subspicatus daily (0.2 mg C/Daphnia/day). The number of offspring per adult and behavioral or physiological effects (e.g., size, movement, unhatched eggs) were recorded daily (except weekends). Dissolved oxygen, pH and temperature were also measured each week.
(§2) Tests were performed under static conditions (20 °C, 16:8 h light/dark cycle, 1 klux). Each compound was tested in 10 replicates for controls and limit tests (a single high concentration exposure to screen for significant toxic effects) and with 6 or 10 replicates for concentration–response tests. Reuse of silicone disks was included in some experiments (Table S3). Reproductive inhibition was assessed by counting offspring over 21 days. The number of offspring per mother in treatment groups was compared to controls, and the percent inhibition per replicate was used to generate concentration–response curves. A minimum of five concentrations per compound were tested to determine EC10, EC20, and EC50 values. For each test, three sets of polymers were rotated between loading, dosing, and exposure stages (Figure S2). Initial (before animal and food addition) and final (after 2–3 days of exposure, just before the medium change) water concentrations (CW) were monitored, with the latter collected after centrifugation to remove biomass (e.g., algae, carapaces, or feces).
(§3) All data are presented as average ± standard deviation. Student’s t test was used to analyze significance (p-value >0.05 considered insignificant). Concentration–response curve parameters (effective concentrations and confidence limits) and plots were generated using GraphPad Prism software (V6.01, GraphPad Software, La Jolla, CA, USA). The exposure concentrations were log10 transformed before fitting. Then a four parameters logistic model with variable slope was used to obtain EC10, EC20 and EC50 (see section S5 in SI file for details). Effective chemical activities (EA50) for chronic toxicity were calculated as follows: [drawing 1] 1 […]
(§4) S5. Concentration-response curve (CRC) fitting procedure
(§5) GraphPad Prism version 9.5.1 was used to fit CRC and obtain EC10, EC20, EC50 values and their confidence intervals. The exposure concentrations were log10 transformed before fitting. Then a four parameters logistic model with variable slope was used that describes the response as a function of following four parameters: minimum response (the Bottom), maximum response (the Top), the concentration required to cause a response half-way between the minimum and maximum (the EC50) and the slope of the curve […]
(§6) concentration. The Top was constrained to 100, the Bottom was constrained to 0, the HillSlope was not […]
(§7) !"# %& = !"# %&* − , × !"# 3 * 4
(§8) (, + ,((!"# %&'(<=)×-.!!/!"01)
(§9) Figure S7 Concentration-response curves of four NSO-PAHs based on reproductive inhibition during 21-day chronic toxicity tests with D. magna.
(§10) (1 picture or pasted object on this page, not shown here)

Daphnia magna = experiment: as above; assay type: in vivo; settings: for EC10: 21-day reproduction inhibition; for % inhibition, avr.: average of vessels; for #live offspring per mother, Total: one value per vessel; for wet weight of parent daphnids, change relative to control: end of 21-d exposure
Protocol: as §1, §2, §3, §4, §5, §6, §7, §8, §9, §10

[2] = cited from earlier work
D. magna = settings: controlled exposure conditions; cited from earlier work
[3] = DNF 0.2 µg/L (0.125 g/L methanol), 21 days
[4] = DNF 0.41 µg/L (0.5 g/L methanol), 21 days
[5] = DNF 1.24 µg/L (1 g/L methanol), 21 days
[6] = DNF […] (0.25 g/L methanol), 21 days
[7] = DNF avr. medium concentration 1.35 µg/L, conc. of methanol for dosing 1.5 g/L, 21 days, single vessels 1-6 (replicates)

**Q.** Which results are given for `c1ccc2c(c1)ccc1oc3ccc4ccccc4c3c12` [DNF, dinaphtho[2,1-b:1′,2′-d]furan]?
**A.** mortality at 21 days, 0.18 µg/L ([1]; 0.18 µg/L (Fig. S8)): 2.6%; mortality at 21 days, 0.24 µg/L ([1]; 0.24 µg/L (Fig. S8)): 5%; mortality at 21 days, 0.39 µg/L ([1]; 0.39 µg/L (Fig. S8)): 5.1%; mortality at 21 days, 1.16 µg/L ([1]; 1.16 µg/L (Fig. S8)): 11.8%; mortality at 21 days, 1.3 µg/L ([1]; 1.30 µg/L (Fig. S8)): 16.7%; mortality at 21 days, 1.44 µg/L ([1]; 1.44 µg/L (Fig. S8)): 42.2%; EC10 (Daphnia magna; 97.5-2.5% confidence interval in brackets): 0.14 (0.05-0.28) μg L^-1; EC10 (Daphnia magna; confidence interval in brackets): 0.52 (0.18-1.03) nmol L^-1; growth of parent D. magna (wet weight) (Daphnia magna; 21-day test, p-value <0.05): did not except at saturation; LOEC (lowest observed effect concentration, reproduction inhibition) (Daphnia magna; 21 days, p-value <0.05 vs controls): 0.2 μg L^–1; #average live offspring (Daphnia magna; [3]): 75; %offspring mortality (Daphnia magna; [3]): 2.61%; % inhibition, avr. (Daphnia magna; [3]): 12.9%; #total live offspring (Daphnia magna; DNF 0.2 µg/L (0.125 g/L methanol), 21 days, sum of all vessels): 447; % inhibition (per vessel) (Daphnia magna; DNF 0.2 µg/L (0.125 g/L methanol), live offspring vs controls, 21 days, per vessel): 15.8%; #average live offspring (Daphnia magna; [4]): 63; %offspring mortality (Daphnia magna; [4]): 5.09%; % inhibition, avr. (Daphnia magna; [4]): 25.8%; #total live offspring (Daphnia magna; DNF 0.41 µg/L (0.5 g/L methanol), 21 days, sum of all vessels): 317; mother animal mortality (Daphnia magna; DNF 0.41 µg/L (0.5 g/L methanol), vessel 3, day 5): dead; #average live offspring (Daphnia magna; [5]): 59; %offspring mortality (Daphnia magna; [5]): 11.81%; % inhibition, avr. (Daphnia magna; [5]): 31.6%; #total live offspring (Daphnia magna; DNF 1.24 µg/L (1 g/L methanol), 21 days, sum of all vessels): 351; #average live offspring (Daphnia magna; [6]): 69; %offspring mortality (Daphnia magna; [6]): 4.95%; % inhibition, avr. (Daphnia magna; [6]): 19.1%; #total live offspring (Daphnia magna; DNF […] (0.25 g/L methanol), 21 days, sum of all vessels): 346; mother animal mortality (Daphnia magna; DNF […] (0.25 g/L methanol), vessel 6, day 5): dead; #live offspring per mother, Total (Daphnia magna; DNF avr. medium concentration 0.2 µg/L (methanol for dosing 0.125 g/L), 21 days): 75 and 64 and 72 and 66 and 98; #live offspring per mother, Total (Daphnia magna; DNF avr. medium concentration 0.41 µg/L (methanol for dosing 0.5 g/L), 21 days): 59 and 75 and 67 and 55 and 61; #live offspring per mother, Total (Daphnia magna; DNF avr. medium concentration 1.24 µg/L (methanol for dosing 1 g/L), 21 days): 62 and 51 and 53 and 60 and 50 and 75; %offspring mortality (Daphnia magna; DNF avr. medium concentration 1.35 µg/L, conc. of methanol for dosing 1.5 g/L, 21 days): 16.71%; % inhibition, avr. (live offspring per mother) (Daphnia magna; DNF avr. medium concentration 1.35 µg/L, conc. of methanol for dosing 1.5 g/L, 21 days, average of 6 vessels): 39.8%; #average live offspring (Daphnia magna; DNF avr. medium concentration 1.35 µg/L, conc. of methanol for dosing 1.5 g/L, 21 days, mean of 6 vessels): 52; #dead offspring per mother, Total (per vessel) (Daphnia magna; [7]): 9 and 12 and 16 and 5 and 8; #live offspring per mother, Total (per vessel) (Daphnia magna; [7]): 49 and 74 and 37 and 40 and 53 and 56; % inhibition (live offspring per mother, per vessel) (Daphnia magna; [7]): 42.7% and 13.5% and 56.7% and 53.2% and 38.0% and 34.5%; #total live offspring (Daphnia magna; DNF avr. medium concentration 1.35 µg/L, conc. of methanol for dosing 1.5 g/L, 21 days, sum of 6 vessels): 309; EA50 (effective chemical activity) (Daphnia magna; EC50/subcooled liquid solubility, eq 1): 0.032 unitless; Classification according to REACH Annex XIII (Daphnia magna; chronic EC10 < 10 μg L^–1): toxic to aquatic life; CTLBB (critical target lipid body burden) (Daphnia magna; derived from chronic EC10 using eq 3): 3.4 μmol g^-1 octanol; wet weight of parent daphnids, change relative to control (Daphnia magna; 0.18 µg/L (Fig. S9)): +1%; wet weight of parent daphnids, change relative to control (Daphnia magna; 0.24 µg/L (Fig. S9)): -2%; wet weight of parent daphnids, change relative to control (Daphnia magna; 0.39 µg/L (Fig. S9)): -6%; wet weight of parent daphnids, change relative to control (Daphnia magna; 1.16 µg/L (Fig. S9)): 2%; wet weight of parent daphnids, change relative to control (Daphnia magna; 1.30 µg/L (Fig. S9)): -6%; wet weight of parent daphnids, change relative to control (Daphnia magna; 1.44 µg/L (Fig. S9)): -27%; SW (water solubility) ([2]; measured in previous work): 1.5 ng/mL; log KOW ([2]; n-octanol-water partition coefficient): 6.89; log KOC ([2]; organic carbon-water partition coefficient): 6.61; acute effects on D. magna immobilization (D. magna): no effects were observed

Reference: PMC12080252, “Daphnia magna as an Alternative Model for (Simultaneous) Bioaccumulation and Chronic Toxicity Assessment—Controlled Exposure Study Indicates High Hazard of Heterocyclic PAHs” (Environmental Science & Technology, 2025)
